Source: ChEMBL document CHEMBL4610090, “Oleanolic Acid Ameliorates Benign Prostatic Hyperplasia by Regulating PCNA-Dependent Cell Cycle Progression In Vivo and In Vitro” (J Nat Prod, 2020)
The source made the active and inactive calls. The rule behind the calls is not given here.

Tests used:
Rattus norvegicus [1] = assay: Suppression of prostate tissue weight in Sprague-Dawley rat model of testosterone propionate-induced benign prostatic hyperplasia at 10 mg/kg, po relative to control; type: functional
Rattus norvegicus [2] = assay: Suppression of serum DHT level in Sprague-Dawley rat model of testosterone propionate-induced benign prostatic hyperplasia at 10 mg/kg, po by ELISA; type: functional, organism-based
Rattus norvegicus [3] = assay: Suppression of 5-alpha reductase2 mRNA expression in Sprague-Dawley rat model of testosterone propionate-induced benign prostatic hyperplasia at 10 mg/kg, po by qRT-PCR method; type: functional, organism-based
Rattus norvegicus [4] = assay: Downregulation of prostate Bcl2 expression in Sprague-Dawley rat model of testosterone propionate-induced benign prostatic hyperplasia at 10 mg/kg, po by Western blot analysis; type: functional, organism-based
Rattus norvegicus [5] = assay: Downregulation of prostate Bcl-xL expression in Sprague-Dawley rat model of testosterone propionate-induced benign prostatic hyperplasia at 10 mg/kg, po by Western blot analysis; type: functional, organism-based
Rattus norvegicus [6] = assay: Induction of PARP1 cleavage in prostate tissue of Sprague-Dawley rat model of testosterone propionate-induced benign prostatic hyperplasia at 10 mg/kg, po by Western blot analysis; type: functional, organism-based
Rattus norvegicus [7] = assay: Suppression of prostate tissue weight in Sprague-Dawley rat model of testosterone propionate-induced benign prostatic hyperplasia at 1 mg/kg, ip relative to control; type: functional
Rattus norvegicus [8] = assay: Suppression of prostate tissue weight in Sprague-Dawley rat model of testosterone propionate-induced benign prostatic hyperplasia at 10 mg/kg, ip relative to control; type: functional
[9] = Toxicity in Sprague-Dawley rat model of testosterone propionate-induced benign prostatic hyperplasia assessed as effect on body weight at 1 to 10 mg/kg, ip; type: organism-based; settings: in vivo
[10] = Toxicity in Sprague-Dawley rat model of testosterone propionate-induced benign prostatic hyperplasia assessed as behavioural changes at 1 to 10 mg/kg, ip; type: organism-based; settings: in vivo
[11] = Toxicity in Sprague-Dawley rat model of testosterone propionate-induced benign prostatic hyperplasia assessed as effect on animal health at 1 to 10 mg/kg, ip; type: organism-based; settings: in vivo
Rattus norvegicus [12] = assay: Suppression of serum DHT level in Sprague-Dawley rat model of testosterone propionate-induced benign prostatic hyperplasia at 1 to 10 mg/kg, ip by ELISA; type: functional, organism-based
Rattus norvegicus [13] = assay: Suppression of 5-alpha reductase2 mRNA expression in Sprague-Dawley rat model of testosterone propionate-induced benign prostatic hyperplasia at 1 to 10 mg/kg, ip by qRT-PCR method; type: functional, organism-based
Rattus norvegicus [14] = assay: Suppression of prostate epithelial thickness in Sprague-Dawley rat model of testosterone propionate-induced benign prostatic hyperplasia at 1 mg/kg, ip by hematoxylin and eosin staining-based microscopic analysis relative to control; type: functional
Rattus norvegicus [15] = assay: Suppression of prostate epithelial thickness in Sprague-Dawley rat model of testosterone propionate-induced benign prostatic hyperplasia at 10 mg/kg, ip by hematoxylin and eosin staining-based microscopic analysis relative to control; type: functional
Rattus norvegicus [16] = assay: Downregulation of prostate Bcl2 expression in Sprague-Dawley rat model of testosterone propionate-induced benign prostatic hyperplasia at 1 to 10 mg/kg, ip by Western blot analysis; type: functional, organism-based
Rattus norvegicus [17] = assay: Downregulation of prostate Bcl-xL expression in Sprague-Dawley rat model of testosterone propionate-induced benign prostatic hyperplasia at 1 to 10 mg/kg, ip by Western blot analysis; type: functional, organism-based
Rattus norvegicus [18] = assay: Induction of PARP1 cleavage in prostate tissue of Sprague-Dawley rat model of testosterone propionate-induced benign prostatic hyperplasia at 10 mg/kg, ip by Western blot analysis; type: functional, organism-based
Rattus norvegicus [19] = assay: Downregulation of Cdk4 expression in prostate tissue of Sprague-Dawley rat model of testosterone propionate-induced benign prostatic hyperplasia at 1 to 10 mg/kg, ip by Western blot analysis; type: functional, organism-based
Rattus norvegicus [20] = assay: Downregulation of Cyclin D1 expression in prostate tissue of Sprague-Dawley rat model of testosterone propionate-induced benign prostatic hyperplasia at 1 to 10 mg/kg, ip by Western blot analysis; type: functional, organism-based
Rattus norvegicus [21] = assay: Downregulation of Cdk2 expression in prostate tissue of Sprague-Dawley rat model of testosterone propionate-induced benign prostatic hyperplasia at 1 to 10 mg/kg, ip by Western blot analysis; type: functional, organism-based
Rattus norvegicus [22] = assay: Downregulation of Cyclin E expression in prostate tissue of Sprague-Dawley rat model of testosterone propionate-induced benign prostatic hyperplasia at 1 to 10 mg/kg, ip by Western blot analysis; type: functional, organism-based
Rattus norvegicus [23] = assay: Downregulation of PCNA expression in prostate tissue of Sprague-Dawley rat model of testosterone propionate-induced benign prostatic hyperplasia at 1 to 10 mg/kg, ip by Western blot analysis; type: functional, organism-based
Rattus norvegicus [24] = assay: Downregulation of PCNA mRNA expression in prostate tissue of Sprague-Dawley rat model of testosterone propionate-induced benign prostatic hyperplasia at 1 mg/kg, ip by qRT-PCR method; type: functional
Rattus norvegicus [25] = assay: Downregulation of PCNA mRNA expression in prostate tissue of Sprague-Dawley rat model of testosterone propionate-induced benign prostatic hyperplasia at 10 mg/kg, ip by qRT-PCR method; type: functional
Rattus norvegicus [26] = assay: Downregulation of PCNA […] expression in prostate tissue of Sprague-Dawley rat model of testosterone propionate-induced benign prostatic hyperplasia at 1 to 10 mg/kg, ip by immunohistochemical analysis; type: functional, organism-based
BPH-1 [27] = assay: Cytotoxicity against human BPH1 cells at 62.5 to 1000 uM by MTT assay; type: functional, cell-based
BPH-1 [28] = assay: Downregulation of PCNA expression in human BPH1 cells at 125 to 500 uM after 24 hrs by immunoblot analysis; type: functional, cell-based
[29] = target: Proliferating cell nuclear antigen (Homo sapiens) (UniProt P12004); assay: Inhibition of PCNA-mediated cell cycle progression in human BPH-1 cells assessed as reduction in cdk4 level at 125 to 500 uM after 24 hrs by immunoblot analysis; type: cell-based
Proliferating cell nuclear antigen (Homo sapiens), sequence (P12004 whole entry): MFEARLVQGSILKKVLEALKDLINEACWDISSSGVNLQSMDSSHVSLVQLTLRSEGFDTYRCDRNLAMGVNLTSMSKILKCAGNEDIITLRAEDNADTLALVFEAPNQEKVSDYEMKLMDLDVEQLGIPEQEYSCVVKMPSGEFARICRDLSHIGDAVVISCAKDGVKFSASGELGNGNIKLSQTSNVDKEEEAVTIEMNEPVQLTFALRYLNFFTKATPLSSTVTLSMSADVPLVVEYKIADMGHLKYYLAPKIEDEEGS

[30] = target: Proliferating cell nuclear antigen (Homo sapiens) (UniProt P12004); assay: Inhibition of PCNA-mediated cell cycle progression in human BPH-1 cells assessed as reduction in cyclin D level at 250 to 500 uM after 24 hrs by immunoblot analysis; type: cell-based

Question: Which inhibition in vivo at 10 mg/kg (Rattus norvegicus [1]) does the source give for `CC(C)(C)NC(=O)[C@H]1CC[C@H]2[C@@H]3CC[C@H]4NC(=O)C=C[C@]4(C)[C@H]3CC[C@]12C` [FINASTERIDE] here?
Answer: 32.5%

Question: What about the Activity (Rattus norvegicus [2]) of the same compound?
Answer: Active

Question: And the inhibition (Rattus norvegicus [3])?
Answer: Active

Question: And the Activity (Rattus norvegicus [4])?
Answer: Active

Question: And the Activity (Rattus norvegicus [5])?
Answer: Active

Question: And the Activity (Rattus norvegicus [6])?
Answer: Active

Question: What does the source list for `CC1(C)CC[C@]2(C(=O)O)CC[C@]3(C)C(=CC[C@@H]4[C@@]5(C)CC[C@H](O)C(C)(C)[C@@H]5CC[C@]43C)[C@@H]2C1` [OLEANOLIC_ACID]?
Answer: inhibition in vivo at 1 mg/kg (Rattus norvegicus [7]): 30.9%; inhibition in vivo at 10 mg/kg (Rattus norvegicus [8]): 31.2%; Activity [9]: Non-Toxic; Activity [10]: Non-Toxic; Activity [11]: Non-Toxic; inhibition (Rattus norvegicus [12]): Active; inhibition (Rattus norvegicus [13]): Active; inhibition in vivo at 1 mg/kg (Rattus norvegicus [14]): 48%; inhibition in vivo at 10 mg/kg (Rattus norvegicus [15]): 54.8%; Activity (Rattus norvegicus [16]): Active; Activity (Rattus norvegicus [17]): Active; Activity (Rattus norvegicus [18]): Active; Activity (Rattus norvegicus [19]): Active; Activity (Rattus norvegicus [20]): Active; Activity (Rattus norvegicus [21]): Active; Activity (Rattus norvegicus [22]): Active; Activity (Rattus norvegicus [23]): Active; Activity (Rattus norvegicus [24]): 54.89%; Activity (Rattus norvegicus [25]): 71.16%; Activity (Rattus norvegicus [26]): Active; Activity (BPH-1 [27]): Active; Activity (BPH-1 [28]): Active; inhibition [29]: Active; inhibition [30]: Active
